Values of other authors in PubChem BioAssay AID1259409 (Chemical Carcinogenesis Research Information System (CCRIS), 2018).

System: rodent chemically induced tumor inhibition, incidence and multiplicity
Experiment: CCRIS tumor inhibitor studies
Settings: Promoter: NONE USED

| Structure (SMILES) | tumour outcome (control, treated, inhibition, significance) (Carcinogen: 7,12-DIMETHYLBENZ[A]ANTHRACENE, 57-97-6, Dose [Inhibitor]: 0.8% IN POWDERED DIET BEGINNING 1 WK POST CARCINOGEN DOSE FOR 51 WK (STUDY DURATION: 52 WK), Route [Inhibitor]: ORAL, Species: RAT, Strain/Sex: SPRAGUE-DAWLEY/FEMALE, Target Tissue: Type of Lesion: EAR DUCT: BENIGN TUMOR, Dose [Carcinogen]: 2.5 MG/100 G BW IN 0.5 ML SESAME OIL ONCE) | tumour outcome (control, treated, inhibition, significance) (Carcinogen: 7,12-DIMETHYLBENZ[A]ANTHRACENE, 57-97-6, Dose [Inhibitor]: 0.8% IN POWDERED DIET BEGINNING 1 WK POST CARCINOGEN DOSE FOR 51 WK (STUDY DURATION: 52 WK), Route [Inhibitor]: ORAL, Species: RAT, Strain/Sex: SPRAGUE-DAWLEY/FEMALE, Target Tissue: Type of Lesion: MAMMARY GLAND: CARCINOMA, Dose [Carcinogen]: 2.5 MG/100 G BW IN 0.5 ML SESAME OIL ONCE) | tumour outcome (control, treated, inhibition, significance) (Carcinogen: 7,12-DIMETHYLBENZ[A]ANTHRACENE, 57-97-6, Dose [Inhibitor]: 0.8% IN POWDERED DIET BEGINNING 1 WK POST CARCINOGEN DOSE FOR 51 WK (STUDY DURATION: 52 WK), Route [Inhibitor]: ORAL, Species: RAT, Strain/Sex: SPRAGUE-DAWLEY/FEMALE, Target Tissue: Type of Lesion: MAMMARY GLAND: FIBROADENOMA, Dose [Carcinogen]: 2.5 MG/100 G BW IN 0.5 ML SESAME OIL ONCE) | tumour outcome (control, treated, inhibition, significance) (Carcinogen: BENZO[A]PYRENE, 50-32-8, Dose [Inhibitor]: 0.03 MMOL/G OF DIET DAILY STARTING 8 D BEFORE AND CONTINUING THROUGH 3 D AFTER CARCINOGEN TREATMENT FOLLOWED BY OBSERVAT, Route [Inhibitor]: ORAL, Species: MOUSE, Strain/Sex: ICR/FEMALE, Target Tissue: Type of Lesion: FORESTOMACH: NEOPLASM, Dose [Carcinogen]: 1 MG IN 0.2 ML CORN OIL 2/WK FOR 4 WK) | tumour outcome (control, treated, inhibition, significance) (Carcinogen: N-METHYL-N'-NITRO-N-NITROSOGUANIDINE, 70-25-7, N-ETHYL-N-HYDROXYETHYLNITROSAMINE, 13147-25-6, N-METHYLBENZYLNITROSAM, Carcinogen: N-METHYL-N'-NITRO-N-NITROSOGUANIDINE, 70-25-7, N-ETHYL-N-HYDROXYETHYLNITROSAMINE, 13147-25-6, N-METHYLBENZYLNITROSAM, Dose [Inhibitor]: 0, 1% IN DIET FOR 36 WK (STUDY DURATION: 36 WK), Route [Inhibitor]: ORAL, Species: RAT, Strain/Sex: F344/MALE, Target Tissue: Type of Lesion: COLON: CARCINOMA, Dose [Carcinogen]: 100 MG/KG BW MNNG ONCE, 750 MG/KG BW EHEN ONCE, 0.5 MG/KG BW MBN TWICE, 40 MG/KG BW DMH 4 TIMES, 0.05% DBN IN DRINKING W) | tumour outcome (control, treated, inhibition, significance) (Carcinogen: N-METHYL-N'-NITRO-N-NITROSOGUANIDINE, 70-25-7, N-ETHYL-N-HYDROXYETHYLNITROSAMINE, 13147-25-6, N-METHYLBENZYLNITROSAM, Carcinogen: N-METHYL-N'-NITRO-N-NITROSOGUANIDINE, 70-25-7, N-ETHYL-N-HYDROXYETHYLNITROSAMINE, 13147-25-6, N-METHYLBENZYLNITROSAM, Dose [Inhibitor]: 0, 1% IN DIET FOR 36 WK (STUDY DURATION: 36 WK), Route [Inhibitor]: ORAL, Species: RAT, Strain/Sex: F344/MALE, Target Tissue: Type of Lesion: ESOPHAGUS: PAPILLOMA, Dose [Carcinogen]: 100 MG/KG BW MNNG ONCE, 750 MG/KG BW EHEN ONCE, 0.5 MG/KG BW MBN TWICE, 40 MG/KG BW DMH 4 TIMES, 0.05% DBN IN DRINKING W) | tumour outcome (control, treated, inhibition, significance) (Carcinogen: N-METHYL-N'-NITRO-N-NITROSOGUANIDINE, 70-25-7, N-ETHYL-N-HYDROXYETHYLNITROSAMINE, 13147-25-6, N-METHYLBENZYLNITROSAM, Carcinogen: N-METHYL-N'-NITRO-N-NITROSOGUANIDINE, 70-25-7, N-ETHYL-N-HYDROXYETHYLNITROSAMINE, 13147-25-6, N-METHYLBENZYLNITROSAM, Dose [Inhibitor]: 0, 1% IN DIET FOR 36 WK (STUDY DURATION: 36 WK), Route [Inhibitor]: ORAL, Species: RAT, Strain/Sex: F344/MALE, Target Tissue: Type of Lesion: FORESTOMACH: PAPILLOMA, Dose [Carcinogen]: 100 MG/KG BW MNNG ONCE, 750 MG/KG BW EHEN ONCE, 0.5 MG/KG BW MBN TWICE, 40 MG/KG BW DMH 4 TIMES, 0.05% DBN IN DRINKING W) | tumour outcome (control, treated, inhibition, significance) (Carcinogen: N-METHYL-N'-NITRO-N-NITROSOGUANIDINE, 70-25-7, N-ETHYL-N-HYDROXYETHYLNITROSAMINE, 13147-25-6, N-METHYLBENZYLNITROSAM, Carcinogen: N-METHYL-N'-NITRO-N-NITROSOGUANIDINE, 70-25-7, N-ETHYL-N-HYDROXYETHYLNITROSAMINE, 13147-25-6, N-METHYLBENZYLNITROSAM, Dose [Inhibitor]: 0, 1% IN DIET FOR 36 WK (STUDY DURATION: 36 WK), Route [Inhibitor]: ORAL, Species: RAT, Strain/Sex: F344/MALE, Target Tissue: Type of Lesion: KIDNEY: RENAL CELL TUMOR, Dose [Carcinogen]: 100 MG/KG BW MNNG ONCE, 750 MG/KG BW EHEN ONCE, 0.5 MG/KG BW MBN TWICE, 40 MG/KG BW DMH 4 TIMES, 0.05% DBN IN DRINKING W) | tumour outcome (control, treated, inhibition, significance) (Carcinogen: N-METHYL-N'-NITRO-N-NITROSOGUANIDINE, 70-25-7, Dose [Inhibitor]: 0, 200 MG/KG/BW SUSPENSION IN OLIVE OIL 1/2 D BEGINNING POST CARCINOGEN TREATMENT AND CONTINUING FOR DURATION OF STUDY (, Route [Inhibitor]: SUBCUTANEOUS, Species: RAT, Strain/Sex: WISTAR/MALE, Target Tissue: Type of Lesion: STOMACH: ADENOCARCINOMA, Dose [Carcinogen]: 50 UG/ML IN DRINKING WATER FOR 25 WK) |
| --- | --- | --- | --- | --- | --- | --- | --- | --- | --- |
| CC(C)(C)c1cc(O)ccc1O | 7/19 (37%), 5/16 (31%), 15%, not calculated | 6/19 (32%), 5/16 (31%), 0.9%, not calculated | 15/19 (79%), 4/16 (24%), 70%, p<0.001 | 94%, 85%, 10%, not significant | 10/18 (56%), 4/18 (22%), 61%, not calculated | 3/18 (17%), 15/18 (83%), -388%, p<0.001 | 6/18 (33%), 15/18 (83%), -151%, p<0.01 | 8/18 (44%), 5/18 (28%), 36%, not calculated |  |
| O=C1CCCO1 |  |  |  |  |  |  |  |  | 16/20 (80%), 13/20 (65%), 19%, not significant |
